Measured values reported in patent publication US7300917B2, “Remedy for chronic disease” (Ono Pharmaceuticals Co., Ltd., priority 2002, dated 2007).
pIC50: −log10 of the molar value. “Also recorded” adds a separate entry of the source.

Columns and labels:
Type in all cases: cell-based
[1] = test system: human prostate stroma cells; experiment: Inhibition by an EDG-2 antagonist of LPA-dependent proliferation of human prostate stroma cells (BrdU uptake); settings: LPA 1 μM; test compound 1 nM to 10 μM; 24 hours; FIG. 2-4
Procedure: To an MEM-α medium containing 10% FBS (fetal bovine serum), gentamicin (50 μg/ml), amphortercin B (50 ng/mL) and human bFGF and human insulin)(GIBCO Inc.) was added PrSC 5685 in a concentration of 1×10^4 cells/well in a 96-well plate and the mixture was cultured for 24 hours. Afterwards, it was washed with Hanks solution twice and the medium was exchanged with a serum-free medium (MEM-α containing gentamicin (50 μg/ml) and amphotercin B (50 ng/ml)) and cultured for another 24 hours. Thereto was added LPA (final concentration: 1 nM-10 μM) and at the same time was added BrdU and the mixture was cultured for 24 hours. The same amount of physiological saline was added in place of LPA as a control.
Uptaking of BrdU was measured by using cell proliferation ELISA kit (Amersham Inc.). Specifically, the cells were treated with BrdU and the cultured serum was discarded and to each well was added a cell anchorage/DNA denaturation solution (150 μl) and the mixture was allowed to stand for 30 minutes. The cell anchorage/DNA denaturation solution was removed and to the mixture was added Blocking buffer (150 μl) and the mixture was allowed to stand for another 30 minutes. Next the Blocking buffer was removed and thereto was added anti-BrdU antibody solution (100 μL) labeled with peroxidase and the mixture was allowed to stand for 30 minutes. Next the antibody solution was removed and the mixture was washed with Wash buffer (PBS(−); 150 μl) three times, moisture was removed enough by tapping and thereto was added a solution of a reaction substance (3,3′,5,5′,-tetramethylbenzidine, TMB 15% solution in DMSO; 100 μL). Thereto was added 2N solution of sulfuric acid (25 μL) and the absorbance was measured at 450 nm by microplate reader SPECTRAMAXPRO.
Human-prostate stroma cells were cultured by the method described in example 2, just before adding LPA the test compound (final concentration: 1 nM to 10 μM) were added. […] After adding LPA was added BrdU and it was cultured for another 24 hours and the uptaking activity of BrdU was measured.

[2] = test system: human airway smooth muscle cells; experiment: Inhibition by an EDG-2 antagonist of LPA-dependent proliferation of human airway smooth muscle cells (BrdU uptake); settings: LPA 3 μM; test compound 1 nM-10 μM; 6 hours; FIG. 6-7
Procedure: BSMC was sowed to an MEM-α medium (GIBCO) containing 10% FBS (fetal bovine serum), gentamicin (50 μg/ml), amfortercin B (50 ng/ml), human bFGF and human insulin in a concentration of 1×10^4 cells/well in a 96-well plate and the mixture was cultured for 24 hours. Afterwards, it was washed with Hanks solution twice, and the medium was exchanged with a serum-free medium (an MEM-α containing gentamicin (50 μg/ml) and amphortecin B (50 ng/ml)) and the mixture was cultured for another 24 hours. Thereto was added LPA (final concentration: 3 nM-10 μM) and simultaneously was added BrdU and the mixture was cultured for another 6 hours. The same amount of physiological saline was added as a control in place of LPA.
Uptaking of BrdU was measured by using cell proliferation ELISA kit (Amersham Inc.). Specifically, the cells were treated with BrdU and the cultured serum was discarded and to each well was added a cell anchorage/DNA denaturation solution (150 μl) and the mixture was allowed to stand for 30 minutes. […] Thereto was added 2N solution of sulfuric acid (25 μL) and the absorbance was measured at 450 nm by microplate reader SPECTRAMAXPRO.
By the method shown in example 4 BSMC was cultured and the test compound (final concentration: 1 nM-10 μM) was added just before adding LPA. […] After adding LPA, BrdU was added and it was cultured for 6 hours and the uptaking activity of BrdU was measured.

[3] = test system: human synovial cells (HFLS); experiment: Inhibition by an EDG-2 antagonist of LPA-dependent proliferation of human synovial cells (BrdU uptake); settings: LPA 3 μM, compound 0.001 μM-10 μM, FIG. 11-12
Procedure: Proliferating activity of human synovial cells by LPA was measured by BrdU uptaking activity of the cells (HFLS CELL APPLICATION Inc.). In a medium containing serum (Synoviocyte Basal Medium/Synoviocyte Growth Supplement) the cells were suspended and they were sowed in a collagen-coated 96-well plate in a concentration of 1×10^4 cells/well and 24 hours after it was washed with Hanks solution (150 μl) twice and the medium was exchanged with serum-free medium (Synoviocyte Basal Medium) in a volume of 100 μL/well and it was cultured for 24 hours. The compound (b) or compound (c) (each in a concentration of 0.001 μM-10 μM) was simultaneously added with LPA (in a concentration of 3 μM) and 18 hours after, thereto was added BrdU and the uptaking of BrdU was measured.

human EDG-2 = target: T1, human EDG-2 (Homo sapiens, UniProt Q92633); experiment: Evaluation of EDG-2 antagonistic activity by monitoring the change of intracellular calcium ion concentration; settings: CHO cells overexpressing human EDG-2; inhibition of intracellular calcium increase by LPA (100 nM); Fura2
T1 construct: expressed in transfected cells; host or cells: Chinese hamster ovary (CHO) cells
T1 sequence (Q92633 whole entry): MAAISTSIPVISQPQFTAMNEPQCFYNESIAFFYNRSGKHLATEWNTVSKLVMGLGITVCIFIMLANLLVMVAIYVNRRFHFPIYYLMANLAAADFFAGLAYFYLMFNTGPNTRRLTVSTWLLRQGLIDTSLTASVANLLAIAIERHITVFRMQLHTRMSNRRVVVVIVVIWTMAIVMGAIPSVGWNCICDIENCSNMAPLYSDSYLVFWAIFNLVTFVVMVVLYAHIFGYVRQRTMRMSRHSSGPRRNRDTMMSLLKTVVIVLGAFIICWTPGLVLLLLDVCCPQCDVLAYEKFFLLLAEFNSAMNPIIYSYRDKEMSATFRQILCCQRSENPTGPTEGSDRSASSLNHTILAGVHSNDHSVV
Procedure: Chinese hamster ovary (CHO) cells which overexpressed human EDG-2 gene were cultured in Ham's F12 medium (GIBCO BRL) containing 10% FBS (fetal bovine serum), penicillin/streptomycin and blasticidin (5 μg/ml). Thus cultured cells were incubated in Fura2 (5 μM)-AM solution [Ham's F12 medium containing FBS (10%), HEPES buffer (20 mM, pH 7.4) and probenecid (2.5 mM)]. Next, it was washed with Hanks solution containing HEPES buffer (20 mM, pH 7.4) and probenecid (2.5 mM) once, and immersed into the Hanks solution. Plates were set in fluorescent drug screening system and intracellular calcium ion concentration was measured for 30 seconds with no stimulation. Five minutes after adding thereto a compound to be tested (final concentration: 1 nM to 10 μM, in dimethylsulfoxide (DMSO) solution), the increase of intracellular calcium ion concentrations before and after the addition of LPA (excitation wave length: […]; fluorescent wave length: 500 nm) were measured every 3 seconds. 1-oleoyl (18:1)-LPA (Sigma) or 1-linolenoyl (18:3)-LPA was used as LPA. 1-linolenoyl (18:3)-LPA was synthesized and purified by either of the following two methods. […]

[4] = test system: mouse precursor fat cells (3T3-L1); experiment: Inhibition by an EDG-2 antagonist of LPA-dependent proliferation of mouse precursor fat cells (BrdU uptake); settings: compound 0.001 μM-10 μM, FIG. 9-10
Procedure: Proliferating activity of mouse precursor fat cells by LPA was measured by BrdU uptaking activity of the cells (3T3-L1). In a medium containing serum (DMEM/10% FBS (50 μg/mL); gentamicin (50 ng/mL); amphotericin B) the cells were suspended and the suspension was sowed in a concentration of 1×10^4 cells/well in a 96-well plate and it was cultured for 24 hours, and then it was washed with Hanks solution (150 μL) twice and the medium was exchanged with serum-free medium (DMEM (50 μg/mL); gentamicin (50 ng/mL); amphotericin B) and it was cultured for another 24 hours. Thereto was added the compound (b) or compound (c) in a final concentration of 0.001 μM-10 μM and 20 hours later thereto was added BrdU and 24 hours later, the uptaking of BrdU was measured.

Row | SMILES | inhibition of proliferation of human prostate stroma cells by LPA stimulation (BrdU uptaking activity) [1] | inhibition of proliferation of human airway smooth muscle cells by LPA stimulation (BrdU uptaking activity) [2] | inhibition of proliferation of human synovial cells by stimulation of LPA (BrdU uptaking activity) [3] | pIC50 (human EDG-2) | inhibition of proliferation of mouse precursor fat cells by LPA stimulation (BrdU uptaking activity) [4]
1 | COc1ccc(OC)c(CCN(CCC(=O)O)C(=O)c2ccccc2-c2ccccc2C(=O)NCc2cccnc2)c1.Cl [compound (a), 3-(N-((2-(2-((pyridin-3-ylmethylamino)carbonyl)phenyl)phenyl)carbonyl)-N-(2-(2,5-dimethoxyphenyl)ethyl)amino)propanoic acid hydrochloride] | suppresses the proliferation effect of normal human prostate stroma cells by LPA, depending on the concentration | suppresses the proliferation effect of normal human airway smooth muscle cells by LPA, depending on the concentration | inhibited the proliferation of human synovial cells by stimulation of LPA |  | 
2 | COC(=O)CCSCc1ccc(-c2onc(C)c2NC(=O)OC(C)c2ccccc2Cl)cc1 (stereo not drawn) [compound (b), methyl 3-({4-[4-({[1-(2-chlorophenyl)ethoxy]carbonyl}amino)-3-methyl-5-isoxazolyl]benzyl}sulfanyl)propanoate, reference compound] | suppresses the proliferation effect of normal human prostate stroma cells by LPA, depending on the concentration | inhibits the proliferation effect of normal human airway smooth muscle cells induced by LPA depending on the concentration | inhibits the proliferation effect of normal human precursor fat cells depending on the concentration; also recorded: inhibited the proliferation of human synovial cells by stimulation of LPA | 5.82 | inhibits the proliferation effect of normal human precursor fat cells induced by LPA depending on the concentration; also recorded: inhibited the proliferation of mouse precursor fat cells by LPA stimulation depending on the concentration
3 | COc1cc(C(=O)N(CCCc2ccccc2)Cc2ccc(-c3ccccc3CC(=O)O)cc2)cc(OC)c1OC [compound (c), (4′-{[(3-phenylpropyl)(3,4,5-trimethoxybenzoyl)amino]methyl}-2-biphenylyl)acetic acid] | suppresses the proliferation effect of normal human prostate stroma cells by LPA, depending on the concentration |  | inhibits the proliferation effect of normal human synovial membrane depending on the concentration | 6.72 | inhibits the proliferation effect of normal human precursor fat cells induced by LPA depending on the concentration; also recorded: inhibited the proliferation of mouse precursor fat cells by LPA stimulation depending on the concentration
